According to the supplement of paper PMC11451515:

Tested on: P12-Ichikawa
Assay: cell viability relative to DMSO control; higher = less cytotoxic
Details: 48 h
Method in brief: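 In 1536-well plates, 5 μl of leukemia cells were seeded per well: 500 cells/well for NOMO1 or SEM and 1000 cells/well for P12-Ichikawa. Each line had first been adapted for at least four passages in each medium. Library compounds in DMSO were pin-dosed at 11 threefold concentrations between 47 μM and 0.79 nM, and CellTiter-Glo One luminescence was read after 48 h at 37°C. Viability is a per-plate percentage relative to DMSO wells, with cell-free wells as background.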

[1] = HPLM + 10% dialyzed FBS, 0.000781 µM
[2] = HPLM + 10% dialyzed FBS, 0.00234 µM
[3] = HPLM + 10% dialyzed FBS, 0.00702 µM
[4] = HPLM + 10% dialyzed FBS, 0.0211 µM
[5] = HPLM + 10% dialyzed FBS, 0.0632 µM
[6] = HPLM + 10% dialyzed FBS, 0.19 µM
[7] = HPLM + 10% dialyzed FBS, 0.569 µM
[8] = HPLM + 10% dialyzed FBS, 1.71 µM
[9] = HPLM + 10% dialyzed FBS, 5.12 µM
[10] = HPLM + 10% dialyzed FBS, 15.4 µM
[11] = HPLM + 10% dialyzed FBS, 46.1 µM
[12] = RPMI 5 mM glucose + 10% FBS, 0.000781 µM
[13] = RPMI 5 mM glucose + 10% FBS, 0.00234 µM
[14] = RPMI 5 mM glucose + 10% FBS, 0.00702 µM
[15] = RPMI 5 mM glucose + 10% FBS, 0.0211 µM
[16] = RPMI 5 mM glucose + 10% FBS, 0.0632 µM
[17] = RPMI 5 mM glucose + 10% FBS, 0.19 µM
[18] = RPMI 5 mM glucose + 10% FBS, 0.569 µM
[19] = RPMI 5 mM glucose + 10% FBS, 1.71 µM
[20] = RPMI 5 mM glucose + 10% FBS, 5.12 µM
[21] = RPMI 5 mM glucose + 10% FBS, 15.4 µM
[22] = RPMI 5 mM glucose + 10% FBS, 46.1 µM
[23] = RPMI 5 mM glucose + 10% dialyzed FBS, 0.000781 µM
[24] = RPMI 5 mM glucose + 10% dialyzed FBS, 0.00234 µM
[25] = RPMI 5 mM glucose + 10% dialyzed FBS, 0.00702 µM
[26] = RPMI 5 mM glucose + 10% dialyzed FBS, 0.0211 µM
[27] = RPMI 5 mM glucose + 10% dialyzed FBS, 0.0632 µM
[28] = RPMI 5 mM glucose + 10% dialyzed FBS, 0.19 µM
[29] = RPMI 5 mM glucose + 10% dialyzed FBS, 0.569 µM
[30] = RPMI 5 mM glucose + 10% dialyzed FBS, 1.71 µM
[31] = RPMI 5 mM glucose + 10% dialyzed FBS, 5.12 µM
[32] = RPMI 5 mM glucose + 10% dialyzed FBS, 15.4 µM
[33] = RPMI 5 mM glucose + 10% dialyzed FBS, 46.1 µM

| SMILES | cell viability [1] [%] | cell viability [2] [%] | cell viability [3] [%] | cell viability [4] [%] | cell viability [5] [%] | cell viability [6] [%] | cell viability [7] [%] | cell viability [8] [%] | cell viability [9] [%] | cell viability [10] [%] | cell viability [11] [%] | cell viability [12] [%] | cell viability [13] [%] | cell viability [14] [%] | cell viability [15] [%] | cell viability [16] [%] | cell viability [17] [%] | cell viability [18] [%] | cell viability [19] [%] | cell viability [20] [%] | cell viability [21] [%] | cell viability [22] [%] | cell viability [23] [%] | cell viability [24] [%] | cell viability [25] [%] | cell viability [26] [%] | cell viability [27] [%] | cell viability [28] [%] | cell viability [29] [%] | cell viability [30] [%] | cell viability [31] [%] | cell viability [32] [%] | cell viability [33] [%] |
| --- | --- | --- | --- | --- | --- | --- | --- | --- | --- | --- | --- | --- | --- | --- | --- | --- | --- | --- | --- | --- | --- | --- | --- | --- | --- | --- | --- | --- | --- | --- | --- | --- | --- |
| CNC1[C@@H](O)C(O[C@@H]2C(O)C(O[C@H]3O[C@H]([C@@H](C)NC)CC[C@H]3N)[C@@H](N)C[C@H]2N)OC[C@]1(C)O (stereo partly specified) | 104 | 98.3 | 102 | 99.6 | 96.5 | 102 | 102 | 98.6 | 89.6 | 90.8 | 85.4 | 92.8 | 88.9 | 97.7 | 91.8 | 93 | 102 | 95.2 | 97.1 | 87.9 | 82.4 | 92.2 | 92.7 | 89.9 | 90 | 93 | 97.8 | 92.2 | 94.1 | 92.3 | 89.4 | 82.7 | 88.4 |
| CC(C)(C)C(=O)OCOP(=O)(COCCn1cnc2c(N)ncnc21)OCOC(=O)C(C)(C)C | 97.4 | 110 | 103 | 103 | 73.1 | 73.5 | 70.2 | 50.1 | 27.4 | 19 | 29.2 | 94.7 | 104 | 92.3 | 94.6 | 69.5 | 72.9 | 52.6 | 29.9 | 15 | 10.7 | 19.6 | 89.3 | 96.3 | 94.7 | 86.4 | 82.1 | 65 | 61.6 | 46.7 | 28.8 | 28.8 | 27.4 |
| C[S+](=O)([O-])N(Cc1ccco1)CC(O)Cn1c2ccccc2c2ccccc21 (stereo unspecified) | 94.2 | 88.9 | 94.2 | 99.9 | 96.3 | 98.8 | 94.8 | 89.8 | 89.3 | 85.8 | 56.6 | 92 | 94 | 92 | 89.2 | 97.7 | 99.2 | 91.9 | 83.6 | 76.4 | 79.2 | 42.1 | 86 | 90.7 | 97 | 97.1 | 94.4 | 87.1 | 81.3 | 88.8 | 85.7 | 73.4 | 41.7 |
| [NH2][Pt]([NH2])([Cl])[Cl] | 99.2 | 105 | 95.1 | 90.3 | 102 | 96 | 97.6 | 98.2 | 101 | 98.2 | 105 | 86.2 | 92.8 | 95.6 | 98 | 101 | 101 | 90.7 | 94.3 | 89 | 90.8 | 95.5 | 88.4 | 94.6 | 85.2 | 92 | 91.1 | 95.6 | 92.2 | 87.6 | 98.8 | 88.4 | 85.2 |
| CCC(=O)OCC(=O)[C@@]1(OC(=O)CC)[C@@H](C)C[C@H]2[C@@H]3CCC4=CC(=O)C=C[C@]4(C)[C@@]3(F)[C@@H](O)C[C@@]21C | 107 | 110 | 111 | 107 | 111 | 96.4 | 80.1 | 65.9 | 64.3 | 12.3 | 6.01 | 106 | 111 | 121 | 108 | 102 | 89.9 | 73.4 | 68.6 | 56 | 6.2 | 6.14 | 101 | 111 | 107 | 94.8 | 90.3 | 76.2 | 67.6 | 54.6 | 52.2 | 5.68 | 4.77 |
| OC[C@H](Cc1ccccc1)Nc1nc(Oc2ccc3c(c2)CCC3)nc2c1ncn2Cc1ccc(-c2ccccc2)cc1 | 93 | 94.1 | 98.7 | 102 | 96.4 | 99.1 | 105 | 94.3 | 95.4 | 82.7 | 79.2 | 90.8 | 93.3 | 89 | 90.5 | 94.7 | 89.5 | 91 | 97.3 | 90.1 | 86 | 75.1 | 79.6 | 88.4 | 90.9 | 99 | 99.8 | 89.3 | 90.8 | 87.7 | 88.9 | 72.4 | 68.4 |
| CC(=O)NC(CS)C(=O)O (stereo unspecified) | 81.9 | 82.9 | 88.7 | 88.4 | 91.3 | 86.4 | 89.3 | 87.2 | 87.3 | 18.4 | 27.5 | 75.5 | 74.2 | 81.5 | 78.2 | 81.4 | 69.5 | 83.3 | 80.4 | 88.8 | 28.6 | 62.5 | 80.4 | 80.4 | 76.4 | 82.7 | 89.7 | 79 | 84.4 | 88.8 | 77.2 | 27.8 | 45.6 |
